# Data taken from PMC4854315, “Discovery of a novel allosteric inhibitor-binding site in ERK5: comparison with the canonical kinase hinge ATP-binding site” (Acta Crystallographica. Section D, Structural Biology, 2016).
# Key:
# Test in all cases: Z'-LYTE kinase panel
# Format in all cases: biochemical
# BTK = molecular target: T1, BTK (Homo sapiens, UniProt Q06187)
# T1 construct: purchased ThermoFisher (SelectScreen, Z'-LYTE)
# How it was run: (§1)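 Percentage inhibition comes from a one-concentration (10 µM) Z′-LYTE screen run under standard protocol over 225 panel kinases.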
# CHEK1 (CHK1) = molecular target: T2, CHEK1 (CHK1) (Homo sapiens, UniProt O14757)
# T2 construct: purchased ThermoFisher (SelectScreen, Z'-LYTE)
# T2 sequence (O14757 1-476): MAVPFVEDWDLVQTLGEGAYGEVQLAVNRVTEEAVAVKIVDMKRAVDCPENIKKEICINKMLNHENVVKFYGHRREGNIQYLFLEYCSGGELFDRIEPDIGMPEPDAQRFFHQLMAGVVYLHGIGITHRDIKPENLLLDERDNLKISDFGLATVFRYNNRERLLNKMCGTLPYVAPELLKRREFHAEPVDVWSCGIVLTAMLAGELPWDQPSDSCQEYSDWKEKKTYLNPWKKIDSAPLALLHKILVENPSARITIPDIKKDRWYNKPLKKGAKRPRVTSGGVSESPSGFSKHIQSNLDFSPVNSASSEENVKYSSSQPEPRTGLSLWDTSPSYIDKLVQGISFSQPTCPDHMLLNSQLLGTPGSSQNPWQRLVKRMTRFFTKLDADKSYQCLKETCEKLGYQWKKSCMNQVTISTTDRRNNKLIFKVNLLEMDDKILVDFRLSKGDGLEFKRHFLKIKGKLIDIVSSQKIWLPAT
# How it was run: as §1
# DYRK1B = molecular target: T3, DYRK1B (Homo sapiens, UniProt Q9Y463)
# T3 construct: purchased ThermoFisher (SelectScreen, Z'-LYTE)
# How it was run: as §1
# EPHB4 = molecular target: T4, EPHB4 (Homo sapiens, UniProt P54760)
# T4 construct: purchased ThermoFisher (SelectScreen, Z'-LYTE)
# T4 sequence (P54760 16-987): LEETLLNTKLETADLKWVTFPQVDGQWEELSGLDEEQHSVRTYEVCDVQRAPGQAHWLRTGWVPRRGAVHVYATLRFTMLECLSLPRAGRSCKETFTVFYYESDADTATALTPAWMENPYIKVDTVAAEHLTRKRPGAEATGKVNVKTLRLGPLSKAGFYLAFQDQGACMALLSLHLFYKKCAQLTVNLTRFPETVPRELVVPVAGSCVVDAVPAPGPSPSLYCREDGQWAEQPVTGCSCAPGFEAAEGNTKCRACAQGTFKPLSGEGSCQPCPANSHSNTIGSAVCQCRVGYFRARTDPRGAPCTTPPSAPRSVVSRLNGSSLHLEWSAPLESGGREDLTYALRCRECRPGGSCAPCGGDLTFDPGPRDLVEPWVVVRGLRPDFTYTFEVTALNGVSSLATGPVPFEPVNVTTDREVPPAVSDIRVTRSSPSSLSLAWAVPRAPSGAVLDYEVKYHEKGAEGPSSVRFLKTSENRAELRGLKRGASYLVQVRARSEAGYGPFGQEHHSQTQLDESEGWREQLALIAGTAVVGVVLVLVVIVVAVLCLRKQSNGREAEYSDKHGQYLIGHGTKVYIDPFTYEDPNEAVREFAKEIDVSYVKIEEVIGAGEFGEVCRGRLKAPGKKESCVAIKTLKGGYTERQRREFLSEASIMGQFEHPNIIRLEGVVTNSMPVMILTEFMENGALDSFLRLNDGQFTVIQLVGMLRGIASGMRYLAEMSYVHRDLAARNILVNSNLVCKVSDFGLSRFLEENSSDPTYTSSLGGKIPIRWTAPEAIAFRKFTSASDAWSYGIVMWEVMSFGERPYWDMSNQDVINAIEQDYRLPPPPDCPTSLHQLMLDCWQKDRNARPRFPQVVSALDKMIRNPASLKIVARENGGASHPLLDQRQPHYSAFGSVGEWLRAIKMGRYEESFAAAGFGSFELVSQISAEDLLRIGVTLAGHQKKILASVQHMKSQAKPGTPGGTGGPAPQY
# How it was run: as §1
# GRK6 = molecular target: T5, GRK6 (Homo sapiens, UniProt P43250)
# T5 construct: purchased ThermoFisher (SelectScreen, Z'-LYTE)
# How it was run: as §1
# JAK3 = molecular target: T6, JAK3 (Homo sapiens, UniProt P52333)
# T6 construct: purchased ThermoFisher (SelectScreen, Z'-LYTE)
# T6 sequence (P52333 1-1124): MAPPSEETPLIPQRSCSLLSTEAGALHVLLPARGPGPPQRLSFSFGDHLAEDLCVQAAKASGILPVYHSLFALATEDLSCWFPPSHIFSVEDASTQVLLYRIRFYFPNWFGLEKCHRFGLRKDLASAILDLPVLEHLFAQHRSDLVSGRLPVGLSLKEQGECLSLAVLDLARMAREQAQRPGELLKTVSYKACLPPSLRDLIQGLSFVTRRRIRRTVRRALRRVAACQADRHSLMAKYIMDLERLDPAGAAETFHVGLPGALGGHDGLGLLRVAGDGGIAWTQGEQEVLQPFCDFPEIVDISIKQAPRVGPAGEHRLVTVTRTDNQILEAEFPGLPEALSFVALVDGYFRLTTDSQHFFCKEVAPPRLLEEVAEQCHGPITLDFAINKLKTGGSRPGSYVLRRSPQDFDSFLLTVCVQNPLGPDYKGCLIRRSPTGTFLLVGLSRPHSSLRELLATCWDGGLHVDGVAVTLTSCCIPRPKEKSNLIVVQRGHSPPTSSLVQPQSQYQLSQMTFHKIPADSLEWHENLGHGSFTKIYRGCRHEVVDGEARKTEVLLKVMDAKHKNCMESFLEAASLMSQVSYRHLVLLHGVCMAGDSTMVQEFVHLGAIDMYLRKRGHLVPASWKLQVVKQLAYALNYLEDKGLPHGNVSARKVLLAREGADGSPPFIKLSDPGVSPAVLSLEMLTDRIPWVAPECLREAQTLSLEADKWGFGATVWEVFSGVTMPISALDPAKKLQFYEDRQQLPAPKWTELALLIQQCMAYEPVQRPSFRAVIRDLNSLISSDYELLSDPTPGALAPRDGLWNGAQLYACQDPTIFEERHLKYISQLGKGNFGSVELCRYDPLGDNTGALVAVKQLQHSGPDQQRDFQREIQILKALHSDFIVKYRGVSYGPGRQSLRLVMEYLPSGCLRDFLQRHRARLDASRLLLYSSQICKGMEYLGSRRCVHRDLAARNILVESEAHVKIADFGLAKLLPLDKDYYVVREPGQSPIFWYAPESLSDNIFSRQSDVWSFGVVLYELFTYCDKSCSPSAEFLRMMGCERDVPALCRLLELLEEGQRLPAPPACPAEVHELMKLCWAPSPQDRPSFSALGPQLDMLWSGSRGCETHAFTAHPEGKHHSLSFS
# How it was run: as §1
# MAPK10 (JNK3) = molecular target: T7, MAPK10 (JNK3) (Homo sapiens, UniProt P53779); conditions: 10 µM compound; ATP 100
# T7 construct: purchased ThermoFisher (SelectScreen, Z'-LYTE)
# How it was run: as §1
# PAK3 = molecular target: T8, PAK3 (Homo sapiens, UniProt O75914)
# T8 construct: purchased ThermoFisher (SelectScreen, Z'-LYTE)
# How it was run: as §1
# T3 sequence (Q9Y463 whole entry): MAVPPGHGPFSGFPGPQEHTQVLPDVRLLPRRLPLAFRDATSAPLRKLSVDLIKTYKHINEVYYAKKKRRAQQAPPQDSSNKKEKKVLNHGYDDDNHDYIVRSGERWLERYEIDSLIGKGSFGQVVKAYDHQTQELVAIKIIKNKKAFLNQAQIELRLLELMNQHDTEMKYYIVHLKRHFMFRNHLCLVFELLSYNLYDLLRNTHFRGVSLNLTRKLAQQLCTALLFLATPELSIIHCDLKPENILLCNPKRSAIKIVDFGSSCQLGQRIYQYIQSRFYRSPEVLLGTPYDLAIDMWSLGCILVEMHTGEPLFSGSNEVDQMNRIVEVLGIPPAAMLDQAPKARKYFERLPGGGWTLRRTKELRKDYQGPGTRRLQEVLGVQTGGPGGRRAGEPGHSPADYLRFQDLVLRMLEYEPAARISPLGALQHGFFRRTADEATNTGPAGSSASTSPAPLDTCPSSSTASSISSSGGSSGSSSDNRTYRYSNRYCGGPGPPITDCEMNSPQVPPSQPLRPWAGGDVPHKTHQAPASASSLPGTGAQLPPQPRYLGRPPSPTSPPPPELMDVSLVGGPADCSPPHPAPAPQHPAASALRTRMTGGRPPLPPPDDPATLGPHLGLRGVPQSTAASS
# T7 sequence (P53779 whole entry): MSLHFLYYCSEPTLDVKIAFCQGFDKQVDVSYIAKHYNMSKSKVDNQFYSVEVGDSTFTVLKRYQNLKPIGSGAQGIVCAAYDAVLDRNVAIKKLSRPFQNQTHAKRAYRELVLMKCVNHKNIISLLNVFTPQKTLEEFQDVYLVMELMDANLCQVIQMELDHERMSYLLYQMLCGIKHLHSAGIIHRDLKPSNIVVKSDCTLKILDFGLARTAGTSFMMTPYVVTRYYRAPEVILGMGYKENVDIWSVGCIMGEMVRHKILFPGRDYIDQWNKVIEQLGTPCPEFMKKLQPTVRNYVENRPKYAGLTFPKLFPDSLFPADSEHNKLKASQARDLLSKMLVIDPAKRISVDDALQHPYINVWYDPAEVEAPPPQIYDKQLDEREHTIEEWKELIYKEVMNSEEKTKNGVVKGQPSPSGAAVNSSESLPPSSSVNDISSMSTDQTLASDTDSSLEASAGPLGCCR
# T8 sequence (O75914 whole entry): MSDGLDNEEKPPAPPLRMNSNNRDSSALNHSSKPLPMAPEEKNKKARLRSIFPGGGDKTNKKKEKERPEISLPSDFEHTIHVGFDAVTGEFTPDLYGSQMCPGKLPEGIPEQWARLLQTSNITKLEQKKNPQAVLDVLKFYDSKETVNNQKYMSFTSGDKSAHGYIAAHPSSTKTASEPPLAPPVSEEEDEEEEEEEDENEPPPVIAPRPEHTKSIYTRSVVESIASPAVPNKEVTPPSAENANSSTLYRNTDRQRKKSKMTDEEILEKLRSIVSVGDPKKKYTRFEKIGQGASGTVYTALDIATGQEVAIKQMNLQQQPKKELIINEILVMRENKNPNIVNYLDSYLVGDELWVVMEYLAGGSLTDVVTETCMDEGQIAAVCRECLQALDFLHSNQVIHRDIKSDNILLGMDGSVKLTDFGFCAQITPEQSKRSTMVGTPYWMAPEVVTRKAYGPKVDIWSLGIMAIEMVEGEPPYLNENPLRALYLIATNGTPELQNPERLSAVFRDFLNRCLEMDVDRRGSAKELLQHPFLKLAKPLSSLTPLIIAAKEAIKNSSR
# T5 sequence (P43250 whole entry): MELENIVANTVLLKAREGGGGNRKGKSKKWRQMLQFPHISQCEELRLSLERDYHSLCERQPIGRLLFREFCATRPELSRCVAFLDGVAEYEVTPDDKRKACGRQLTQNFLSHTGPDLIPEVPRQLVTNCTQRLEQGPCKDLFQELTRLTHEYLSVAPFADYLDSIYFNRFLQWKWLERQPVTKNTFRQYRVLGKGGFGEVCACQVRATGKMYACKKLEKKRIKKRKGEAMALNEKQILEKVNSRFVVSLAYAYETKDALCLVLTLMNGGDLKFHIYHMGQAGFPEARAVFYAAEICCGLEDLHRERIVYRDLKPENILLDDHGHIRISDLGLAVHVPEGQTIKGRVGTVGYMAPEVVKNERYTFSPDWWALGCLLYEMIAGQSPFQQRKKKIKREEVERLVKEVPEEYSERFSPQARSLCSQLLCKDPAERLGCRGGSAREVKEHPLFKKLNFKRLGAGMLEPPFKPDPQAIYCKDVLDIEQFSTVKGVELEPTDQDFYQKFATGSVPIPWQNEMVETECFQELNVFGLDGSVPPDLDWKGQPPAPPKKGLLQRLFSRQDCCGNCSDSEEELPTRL
# T1 sequence (Q06187 whole entry): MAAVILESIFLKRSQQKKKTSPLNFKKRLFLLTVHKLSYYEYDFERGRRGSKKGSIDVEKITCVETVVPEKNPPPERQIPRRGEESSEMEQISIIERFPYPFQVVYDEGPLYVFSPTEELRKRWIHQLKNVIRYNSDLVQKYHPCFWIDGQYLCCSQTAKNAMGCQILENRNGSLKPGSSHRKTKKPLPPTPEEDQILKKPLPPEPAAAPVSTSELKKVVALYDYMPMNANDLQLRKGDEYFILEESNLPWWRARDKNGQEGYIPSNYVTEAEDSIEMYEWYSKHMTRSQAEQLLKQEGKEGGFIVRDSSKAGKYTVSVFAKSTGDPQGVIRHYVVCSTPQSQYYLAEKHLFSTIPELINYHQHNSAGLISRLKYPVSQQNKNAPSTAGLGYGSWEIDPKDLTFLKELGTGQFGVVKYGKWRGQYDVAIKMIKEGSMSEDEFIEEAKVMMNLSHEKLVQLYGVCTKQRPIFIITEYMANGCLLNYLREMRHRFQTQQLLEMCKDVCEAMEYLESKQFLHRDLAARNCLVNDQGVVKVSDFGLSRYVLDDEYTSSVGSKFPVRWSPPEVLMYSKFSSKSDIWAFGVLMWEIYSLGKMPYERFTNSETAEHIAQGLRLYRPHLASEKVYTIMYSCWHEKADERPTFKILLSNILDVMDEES
Compound,inhibition at 10 µM (BTK) [%],inhibition at 10 µM (CHEK1 (CHK1)) [%],inhibition at 10 µM (DYRK1B) [%],inhibition at 10 µM (EPHB4) [%],inhibition at 10 µM (GRK6) [%],inhibition at 10 µM (JAK3) [%],inhibition at 10 µM (MAPK10 (JNK3)) [%],inhibition at 10 µM (PAK3) [%],"BTK % Inhibition (BTK; 10 µM compound, ATP Km app) [%]","CHEK1 (CHK1) % Inhibition (CHEK1 (CHK1); 10 µM compound, ATP Km app) [%]","DYRK1B % Inhibition (DYRK1B; 10 µM compound, ATP Km app) [%]","EPHB4 % Inhibition (EPHB4; 10 µM compound, ATP Km app) [%]","GRK6 % Inhibition (GRK6; 10 µM compound, ATP Km app) [%]","JAK3 % Inhibition (JAK3; 10 µM compound, ATP Km app) [%]",MAPK10 (JNK3) % Inhibition (MAPK10 (JNK3)) [%],"PAK3 % Inhibition (PAK3; 10 µM compound, ATP Km app) [%]"
Cc1ncc(-c2nc(Nc3ccc(C(=O)NCCN4CCCCC4)cc3)ncc2F)n1C(C)C [Compound 3],59,87,100,83,53,88,77,37,,,,,,,,
Cc1cc(Nc2nc(N)nn2C(=O)NC(C)C)ccc1Cl [Compound 5],11,14,-4,17,-0.556,45,2.76,-12,,,,,,,,
"XMD8-92 [Compound 2, reference compound]",,,,,,,,,35,8,12,29,1.47,80,9,71
